Measured values as given in patent publication US20260234157A1, “COMPOUND AND METHOD FOR TARGETED DEGRADATION OF ANDROGEN RECEPTOR” (Gan & Lee Pharmaceuticals Co., Ltd., priority 2023, published 2026).
Like-named read-outs stand apart in the source and are kept apart here.

Columns and labels:
Type in all cases: cell-based
LNCaP FGC cells = experiment: Inhibition of proliferation of LNCaP cells (WST-8); conditions: Homo sapiens, LNCaP, 96 h
Experimental: The cells were cultured in a cell culture incubator with 5% CO2 at 37° C. overnight. […] On the sixth day, 96 well plates were taken out, and 20 μL of WST-8 (Beytime, C0040) reagent was added to each well.

VCaP cells = experiment: Inhibition of proliferation of VCaP cells (WST-8); conditions: Homo sapiens, read-out: IC50 for inhibiting the proliferation of VCaP cells
Experimental: The inhibitory activity of the compounds disclosed in the present disclosure on the proliferation of VCaP cells
On the first day of the experiment, […] were inoculated in 96 well plates at a density of 15000 cells per well using DMEM medium containing 10% fetal bovine serum, with 100 μL of cell suspension per well. The cells were cultured in a cell culture incubator with 5% CO2 at 37° C. overnight. […] On the ninth day, 96 well plates were taken out, and 20 μL of WST-8 (Beytime, C0040) reagent was added to each well.

AR protein = target: T1, AR protein (Homo sapiens, UniProt P10275, T878A); experiment: Degradation of AR protein in LNCaP cells (Western blot); conditions: for inhibition at 0.01 µM: read-out: Degradation rates of the AR protein in LNCaP cells, 10 nM (%); for inhibition at 0.1 µM: read-out: Degradation rates of the AR protein in LNCaP cells, 100 nM (%)
T1 construct: degradation activity of the compounds disclosed in the present disclosure on AR protein in LNCaP cells; host or cells: LNCaP FGC
T1 sequence (P10275 1-920 T878A): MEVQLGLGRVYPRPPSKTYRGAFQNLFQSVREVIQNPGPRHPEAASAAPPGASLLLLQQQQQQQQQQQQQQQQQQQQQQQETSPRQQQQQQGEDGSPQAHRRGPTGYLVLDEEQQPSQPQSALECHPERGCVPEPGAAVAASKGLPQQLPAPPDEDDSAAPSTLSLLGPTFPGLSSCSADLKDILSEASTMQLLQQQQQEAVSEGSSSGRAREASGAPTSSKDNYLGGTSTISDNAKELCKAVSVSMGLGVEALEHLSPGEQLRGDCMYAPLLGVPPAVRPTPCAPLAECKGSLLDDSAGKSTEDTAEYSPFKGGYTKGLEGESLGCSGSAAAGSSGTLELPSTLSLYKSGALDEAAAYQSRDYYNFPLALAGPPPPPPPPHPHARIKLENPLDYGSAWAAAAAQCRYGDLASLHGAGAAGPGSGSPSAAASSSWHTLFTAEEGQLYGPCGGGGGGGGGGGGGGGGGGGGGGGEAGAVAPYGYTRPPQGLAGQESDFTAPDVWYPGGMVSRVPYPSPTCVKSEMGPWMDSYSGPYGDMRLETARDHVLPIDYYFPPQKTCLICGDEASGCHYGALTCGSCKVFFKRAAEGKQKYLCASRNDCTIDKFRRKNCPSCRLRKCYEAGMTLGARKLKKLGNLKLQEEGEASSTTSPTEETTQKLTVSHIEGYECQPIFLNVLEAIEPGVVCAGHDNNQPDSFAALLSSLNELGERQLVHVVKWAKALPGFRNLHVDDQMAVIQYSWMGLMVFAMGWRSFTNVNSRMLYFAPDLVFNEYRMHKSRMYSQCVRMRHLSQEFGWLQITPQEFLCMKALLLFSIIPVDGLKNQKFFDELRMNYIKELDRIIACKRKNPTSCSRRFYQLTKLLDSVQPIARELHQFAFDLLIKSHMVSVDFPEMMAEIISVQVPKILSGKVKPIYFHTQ
Summary of the method: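 AR assessed by SDS-PAGE/Western blot with infrared imaging; band greyscale normalised to GAPDH gave percent degradation.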

[1] = read-out: IC50 for inhibiting the proliferation of LNCaP cells, LNCaP FGC cells, 96 hours, WST-8 absorbance at 450 nm
[2] = LNCaP cells, compound 10 nM, 8 hours, Western blot grayscale, GAPDH internal reference
[3] = LNCaP cells, compound 100 nM, 8 hours, Western blot grayscale, GAPDH internal reference
[4] = LNCaP FGC cells, 96 hours, WST-8 absorbance at 450 nm, read-out: IC50 for inhibiting the proliferation of LNCaP cells
[5] = VCaP cells, 168 hours, WST-8 absorbance at 450 nm

| IC50 (LNCaP FGC cells; [4]) [µM] | IC50 (VCaP cells; [5]) [µM] | Structure (SMILES) | IC50 (LNCaP FGC cells; [1]) [µM] | IC50 (VCaP cells; VCaP, 168 h) [µM] | also measured |
| --- | --- | --- | --- | --- | --- |
|  |  | CC1(C)C(=O)N(c2ccc(C#N)c(C(F)(F)F)c2)C(=S)N1c1ccc(C(=O)N2CCC(CN3CCC4(CC3)COc3cc5c(cc3C4)C(=O)N(C3CCC(=O)NC3=O)C5=O)CC2)c(F)c1 (stereo not drawn) [Compound 82] | 3.39 | 4.26 |  |
|  |  | CC1(C)C(=O)N(c2ccc(C#N)c(C(F)(F)F)c2)C(=S)N1c1ccc(C(=O)N2CC(N3CCC4(CC3)COc3cc5c(cc3C4)C(=O)N(C3CCC(=O)NC3=O)C5=O)C2)c(F)c1 (stereo not drawn) [Compound 112] | 8.18 | 5.12 |  |
|  |  | CC1(C)C(=O)N(c2ccc(C#N)c(C(F)(F)F)c2)C(=S)N1c1ccc(C(=O)N2CCC3(CCC(N4CCC5(CC4)COc4cc6c(cc4C5)C(=O)N(C4CCC(=O)NC4=O)C6=O)CC3)C2)c(F)c1 (stereo not drawn) [Compound 130] | 2.66 | 3.61 |  |
|  |  | CC1(C)C(=O)N(c2ccc(C#N)c(C(F)(F)F)c2)C(=S)N1c1ccc(C(=O)N2CCC3(CC2)CC(N2CCC4(CC2)COc2cc5c(cc2C4)C(=O)N(C2CCC(=O)NC2=O)C5=O)C3)c(F)c1 (stereo not drawn) [Compound 123] | 2.71 | 3.38 |  |
|  |  | CC1(C)C(=O)N(c2ccc(C#N)c(C(F)(F)F)c2)C(=S)N1c1ccc(C(=O)N2CC[C@H](CN3CCC4(CC3)COc3cc5c(cc34)C(=O)N(C3CCC(=O)NC3=O)C5=O)C2)c(F)c1 (stereo partly drawn) [Compound 125] | 6.97 | 9.29 |  |
| 0.93 | 1.2 | N#Cc1ccc(O[C@H]2CC[C@H](NC(=O)c3ccc(N4CCN(C5CCC6(CCc7cc8c(cc7O6)C(=O)N(C6CCC(=O)NC6=O)C8=O)CC5)CC4)nn3)CC2)cc1Cl (stereo partly drawn) [Compound 29] |  |  | inhibition at 0.01 µM (AR protein; [2]): 35%; inhibition at 0.1 µM (AR protein; [3]): 63% |
| 0.56 | 0.38 | N#Cc1ccc(O[C@H]2CC[C@H](NC(=O)c3ccc(N4CC[C@@H](CN5CCC6(CCc7cc8c(cc7O6)C(=O)N(C6CCC(=O)NC6=O)C8=O)CC5)C4)nn3)CC2)cc1Cl (stereo partly drawn) [Compound 21] |  |  |  |
| 6.05 | 7.4 | N#Cc1ccc(O[C@H]2CC[C@H](NC(=O)c3ccc(N4CCC5(CC4)COc4cc6c(cc4O5)C(=O)N(C4CCC(=O)NC4=O)C6=O)nn3)CC2)cc1Cl (stereo partly drawn) [Compound 75] |  |  | inhibition at 0.01 µM (AR protein; [2]): 41%; inhibition at 0.1 µM (AR protein; [3]): 36% |
| 13.6 | 0.65 | N#Cc1ccc(O[C@H]2CC[C@H](NC(=O)c3ccc(N4CCC(F)(CN5CCC6(CCc7ccc8c(c7O6)C(=O)N(C6CCC(=O)NC6=O)C8)CC5)CC4)nn3)CC2)cc1Cl (stereo partly drawn) [Compound 163] |  |  |  |
|  |  | CC1(CN2CCC3(CC2)COc2cc4c(cc2C3)C(=O)N(C2CCC(=O)NC2=O)C4=O)CCN(C(=O)c2ccc(N3C(=S)N(c4ccc(C#N)c(C(F)(F)F)c4)C(=O)C3(C)C)cc2F)CC1 (stereo not drawn) [Compound 114] | 7.63 | 3.29 |  |
|  |  | CC1(C)C(=O)N(c2ccc(C#N)c(C(F)(F)F)c2)C(=S)N1c1ccc(C(=O)N2CCC(CN3CCC4(CCc5cc6c(cc5O4)CN(C4CCC(=O)NC4=O)C6=O)CC3)CC2)c(F)c1 (stereo not drawn) [Compound 85] | 5.34 | 7.4 |  |
|  |  | CC1(C)C(=O)N(c2ccc(C#N)c(C(F)(F)F)c2)C(=S)N1c1ccc(C(=O)N2CC[C@@H](CN3CCC4(CC3)COc3cc5c(cc3C4)C(=O)N(C3CCC(=O)NC3=O)C5=O)C2)c(F)c1 (stereo partly drawn) [Compound 83] | 7.06 | 9.73 |  |
| 0.73 | 2.83 | CC1(CN2CC3(CCc4cc5c(cc4O3)CN(C3CCC(=O)NC3=O)C5=O)C2)CCN(c2ccc(C(=O)N[C@H]3CC[C@H](Oc4ccc(C#N)c(Cl)c4)CC3)nn2)CC1 (stereo partly drawn) [Compound 80] |  |  |  |
| 59.9 | 0.002 | N#Cc1ccc(O[C@H]2CC[C@H](NC(=O)c3ccc(N4CCC(N5CCC(C(=O)N6CCC7(CC6)COc6c7ccc7c6CN(C6CCC(=O)NC6=O)C7=O)CC5)CC4)nn3)CC2)cc1Cl (stereo partly drawn) [Compound 160] |  |  | inhibition at 0.01 µM (AR protein; [2]): 67%; inhibition at 0.1 µM (AR protein; [3]): 76% |
| 0.85 | 0.02 | COC1(CN2CCC3(CC2)COc2c(ccc4c2C(=O)N(C2CCC(=O)NC2=O)C4)C3)CCN(c2ccc(C(=O)NC3CCC(Oc4ccc(C#N)c(Cl)c4)CC3)nn2)CC1 (stereo not drawn) [Compound 186] |  |  |  |
|  |  | CC1(C)C(=O)N(c2ccc(C#N)c(C(F)(F)F)c2)C(=S)N1c1ccc(C(=O)N2CCC3(CCC(N4CCC5(CC4)COc4cc6c(cc4C5)C(=O)N(C4CCC(=O)NC4=O)C6=O)CC3)CC2)c(F)c1 (stereo not drawn) [Compound 113] | 5.56 | 2.81 |  |
|  |  | N#Cc1ccc(O[C@H]2CC[C@H](NC(=O)c3ccc(N4CCC(N5CCC6(CC5)CC(F)(F)c5cc7c(cc5O6)C(=O)N(C5CCC(=O)NC5=O)C7=O)CC4)nn3)CC2)cc1Cl (stereo partly drawn) [Compound 38] | 2.4 | 5.29 | inhibition at 0.01 µM (AR protein; LNCaP, 8 h): 29%; inhibition at 0.1 µM (AR protein; LNCaP, 8 h): 48% |
|  |  | CC1(C)C(=O)N(c2ccc(C#N)c(C(F)(F)F)c2)C(=S)N1c1ccc(C(=O)N2CC3(CC(N4CCC5(CCc6cc7c(cc6O5)C(=O)N(C5CCC(=O)NC5=O)C7=O)CC4)C3)C2)c(F)c1 (stereo not drawn) [Compound 100] | 27.9 | 0.62 |  |
|  |  | CC1(C)C(=O)N(c2ccc(C#N)c(C(F)(F)F)c2)C(=S)N1c1ccc(C(=O)N2CCC(F)(CN3CC4(CCc5cc6c(cc5O4)C(=O)N(C4CCC(=O)NC4=O)C6)C3)CC2)c(F)c1 (stereo not drawn) [Compound 81] | 3.86 | 0.03 |  |
|  |  | N#Cc1ccc(O[C@H]2CC[C@H](NC(=O)c3ccc(N4CC(N5CCC6(CC5)Oc5cc7c(cc5CC6(F)F)C(=O)N(C5CCC(=O)NC5=O)C7=O)C4)nn3)CC2)cc1Cl (stereo partly drawn) [Compound 37] | 4.53 | 3.23 | inhibition at 0.01 µM (AR protein; LNCaP, 8 h): 5%; inhibition at 0.1 µM (AR protein; LNCaP, 8 h): 29% |
| 1.11 | 0.57 | COC1(CN2CCC3(CC2)Cc2cc4c(cc2O3)C(=O)N(C2CCC(=O)NC2=O)C4=O)CCN(c2ccc(C(=O)N[C@H]3CC[C@H](Oc4ccc(C#N)c(Cl)c4)CC3)nn2)CC1 (stereo partly drawn) [Compound 199] |  |  |  |
|  |  | N#Cc1ccc(O[C@H]2CC[C@H](NC(=O)c3ccc(N4CC5(CCC(N6CCC(N7CCC8(CC7)COc7c8ccc8c7CN(C7CCC(=O)NC7=O)C8=O)CC6)CC5)C4)nn3)CC2)cc1Cl (stereo partly drawn) [Compound 175] | 8.07 | 0.01 |  |

| Structure (SMILES) | IC50 (LNCaP FGC cells; [4]) [µM] | IC50 (VCaP cells; [5]) [µM] | IC50 (LNCaP FGC cells; [1]) [µM] | IC50 (VCaP cells; VCaP, 168 h) [µM] | also measured |
| --- | --- | --- | --- | --- | --- |
| COC1(CN2CC3(CCc4cc5c(cc4O3)C(=O)N(C3CCC(=O)NC3=O)C5=O)C2)CCN(C(=O)c2ccc(N3C(=S)N(c4ccc(C#N)c(C(F)(F)F)c4)C(=O)C3(C)C)cc2F)CC1 (stereo not drawn) [Compound 88] | 0.53 | 0.17 |  |  |  |
| N#Cc1ccc(O[C@H]2CC[C@H](NC(=O)c3ccc(N4CCC5(CC4)CC(N4CCC6(CC4)COc4c6ccc6c4C(=O)N(C4CCC(=O)NC4=O)C6=O)C5)nn3)CC2)cc1Cl (stereo partly drawn) [Compound 143] | 0.35 | 0.02 |  |  |  |
| CC1(C)C(=O)N(c2ccc(C#N)c(C(F)(F)F)c2)C(=S)N1c1ccc(C(=O)N2CCC(CN3CC4(CCc5cc6c(cc5O4)CN(C4CCC(=O)NC4=O)C6=O)C3)CC2)c(F)c1 (stereo not drawn) [Compound 124] | 7.91 | 2.96 |  |  |  |
